Source: BindingDB's records for doi:10.1021/bi00180a024 (Medical University of South Carolina, 1994)

Target: T1, 5-hydroxytryptamine receptor 1A (Homo sapiens, UniProt P08908)
T1 sequence (P08908 whole entry): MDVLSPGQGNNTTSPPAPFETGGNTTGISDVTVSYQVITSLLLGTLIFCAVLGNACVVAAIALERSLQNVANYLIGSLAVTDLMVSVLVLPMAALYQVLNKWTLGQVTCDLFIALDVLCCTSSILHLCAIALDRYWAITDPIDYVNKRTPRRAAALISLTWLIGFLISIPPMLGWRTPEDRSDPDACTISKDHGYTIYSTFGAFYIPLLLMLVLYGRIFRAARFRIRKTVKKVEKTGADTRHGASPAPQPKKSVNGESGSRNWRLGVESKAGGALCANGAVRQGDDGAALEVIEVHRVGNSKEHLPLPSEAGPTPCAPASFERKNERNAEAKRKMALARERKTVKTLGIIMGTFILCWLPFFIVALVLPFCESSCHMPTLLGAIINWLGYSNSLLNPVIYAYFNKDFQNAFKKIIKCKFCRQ

## O=C1c2ccccc2S(=O)(=O)N1CCCCN1CCN(c2ncccn2)CC1 [1,1-Dioxo-2-[4-(4-pyrimidin-2-yl-piperazin-1-yl)-butyl]-1,2-dihydro-1lambda*6*-benzo[d]isothiazol-3-one]
  Ki: 130 nM
